Laboratory results reported in patent publication US20150307938A1, “METHOD TO IDENTIFY A NOVEL CLASS OF IMMUNOLOGIC ADJUVANTS” (Lancell, L.L.C., priority 2011, published 2015).

Test system: skin
Experiment: Affymetrix microarray of skin, DBP-4 hr and analogs vs. untreated; gene selection by log-2 fold change, Wilcoxon, Kendall tau (Tables 8, 9)
Type: in vivo, mouse

## CC(C)=O [Acetone]
Gene #1 of Table 8
  Log2 Expression Level: 5.63
Gene #2 of Table 8
  Log2 Expression Level: 7.13
Gene #3 of Table 8
  Log2 Expression Level: 8.73
Gene #4 of Table 8
  Log2 Expression Level: 8.73
Gene #5 of Table 8
  Log2 Expression Level: 6.36
Gene #6 of Table 8
  Log2 Expression Level: 5.62
Gene #7 of Table 8
  Log2 Expression Level: 5.07
Gene #8 of Table 8
  Log2 Expression Level: 5.62
Gene #9 of Table 8
  Log2 Expression Level: 5.62
Gene #10 of Table 8
  Log2 Expression Level: 5.62
Gene #11 of Table 8
  Log2 Expression Level: 5.07
Gene #12 of Table 8
  Log2 Expression Level: 5.07
Gene #13 of Table 8
  Log2 Expression Level: 5.07
Gene #14 of Table 8
  Log2 Expression Level: 4.90
Gene #15 of Table 8
  Log2 Expression Level: 4.90
Gene #16 of Table 8
  Log2 Expression Level: 6.15
Gene #17 of Table 8
  Log2 Expression Level: 8.79
Gene #18 of Table 8
  Log2 Expression Level: 8.79
Gene #19 of Table 8
  Log2 Expression Level: 8.22
Gene #20 of Table 8
  Log2 Expression Level: 7.12
Gene #21 of Table 8
  Log2 Expression Level: 7.81
Gene #22 of Table 8
  Log2 Expression Level: 7.76
Gene #23 of Table 8
  Log2 Expression Level: 5.76
Gene #24 of Table 8
  Log2 Expression Level: 6.97
Gene #25 of Table 8
  Log2 Expression Level: 6.97
Gene #26 of Table 8
  Log2 Expression Level: 6.97
Gene #27 of Table 8
  Log2 Expression Level: 6.97
Gene #28 of Table 8
  Log2 Expression Level: 6.97
Gene #29 of Table 8
  Log2 Expression Level: 4.96
Gene #30 of Table 8
  Log2 Expression Level: 8.52
Gene #31 of Table 8
  Log2 Expression Level: 8.52
Gene #32 of Table 8
  Log2 Expression Level: 8.52
Gene #33 of Table 8
  Log2 Expression Level: 5.65
Gene #34 of Table 8
  Log2 Expression Level: 6.46
Gene #35 of Table 8
  Log2 Expression Level: 6.46
Gene #36 of Table 8
  Log2 Expression Level: 8.73
Gene #37 of Table 8
  Log2 Expression Level: 8.73
Gene #38 of Table 8
  Log2 Expression Level: 8.73
Gene #39 of Table 8
  Log2 Expression Level: 7.16
Gene #40 of Table 8
  Log2 Expression Level: 7.23
Gene #41 of Table 8
  Log2 Expression Level: 7.42
Gene #42 of Table 8
  Log2 Expression Level: 7.03
Gene #43 of Table 8
  Log2 Expression Level: 7.03
Gene #44 of Table 8
  Log2 Expression Level: 7.42
Gene #45 of Table 8
  Log2 Expression Level: 7.03
Gene #46 of Table 8
  Log2 Expression Level: 7.42
Gene #47 of Table 8
  Log2 Expression Level: 7.47
Gene #48 of Table 8
  Log2 Expression Level: 7.47
Gene #49 of Table 8
  Log2 Expression Level: 7.47
Gene #50 of Table 8
  Log2 Expression Level: 7.97
Gene #51 of Table 8
  Log2 Expression Level: 7.28
Gene #52 of Table 8
  Log2 Expression Level: 9.55
Gene #53 of Table 8
  Log2 Expression Level: 7.74
Gene #54 of Table 8
  Log2 Expression Level: 9.23
Gene #55 of Table 8
  Log2 Expression Level: 6.67
Gene #56 of Table 8
  Log2 Expression Level: 8.58
Gene #57 of Table 8
  Log2 Expression Level: 8.52
Gene #58 of Table 8
  Log2 Expression Level: 8.50
Gene #59 of Table 8
  Log2 Expression Level: 8.28
Gene #60 of Table 8
  Log2 Expression Level: 6.59
Gene #61 of Table 8
  Log2 Expression Level: 11.19
Gene #62 of Table 8
  Log2 Expression Level: 7.64
Gene #63 of Table 8
  Log2 Expression Level: 10.28
Gene #64 of Table 8
  Log2 Expression Level: 10.06
Gene #65 of Table 8
  Log2 Expression Level: 6.46
Gene #66 of Table 8
  Log2 Expression Level: 7.87
Gene #67 of Table 8
  Log2 Expression Level: 4.12
Gene #68 of Table 8
  Log2 Expression Level: 6.73
Gene #69 of Table 8
  Log2 Expression Level: 4.99
Gene #70 of Table 8
  Log2 Expression Level: 4.18
Gene #71 of Table 8
  Log2 Expression Level: 6.68
Gene #72 of Table 8
  Log2 Expression Level: 7.93
Gene #73 of Table 8
  Log2 Expression Level: 5.55
Gene #74 of Table 8
  Log2 Expression Level: 7.00
Gene #75 of Table 8
  Log2 Expression Level: 8.22
Gene #76 of Table 8
  Log2 Expression Level: 4.30
Gene #77 of Table 8
  Log2 Expression Level: 8.48
Gene #78 of Table 8
  Log2 Expression Level: 9.31
Gene #79 of Table 8
  Log2 Expression Level: 6.49
Gene #80 of Table 8
  Log2 Expression Level: 12.42
Gene #81 of Table 8
  Log2 Expression Level: 5.50
Gene #82 of Table 8
  Log2 Expression Level: 5.03
Gene #83 of Table 8
  Log2 Expression Level: 6.32
Gene #84 of Table 8
  Log2 Expression Level: 6.04
Gene #85 of Table 8
  Log2 Expression Level: 4.71
Gene #86 of Table 8
  Log2 Expression Level: 6.08
Gene #87 of Table 8
  Log2 Expression Level: 8.85
Gene #88 of Table 8
  Log2 Expression Level: 4.54
Gene #89 of Table 8
  Log2 Expression Level: 5.23
Gene #90 of Table 8
  Log2 Expression Level: 9.45
Gene #91 of Table 8
  Log2 Expression Level: 6.14
Gene #92 of Table 8
  Log2 Expression Level: 6.80
Gene #93 of Table 8
  Log2 Expression Level: 8.25
Gene #94 of Table 8
  Log2 Expression Level: 7.10
Gene #95 of Table 8
  Log2 Expression Level: 4.96
Gene #96 of Table 8
  Log2 Expression Level: 6.62
Gene #97 of Table 8
  Log2 Expression Level: 5.16
Gene #98 of Table 8
  Log2 Expression Level: 4.29
Gene #99 of Table 8
  Log2 Expression Level: 8.55
Gene #100 of Table 8
  Log2 Expression Level: 6.49

## COC(=O)c1ccccc1C(=O)OC [DMP, dimethylphthalate]
Gene #1 of Table 8
  Log2 Expression Level: 5.82
Gene #2 of Table 8
  Log2 Expression Level: 6.47
Gene #3 of Table 8
  Log2 Expression Level: 8.83
Gene #4 of Table 8
  Log2 Expression Level: 8.83
Gene #5 of Table 8
  Log2 Expression Level: 6.08
Gene #6 of Table 8
  Log2 Expression Level: 6.09
Gene #7 of Table 8
  Log2 Expression Level: 5.32
Gene #8 of Table 8
  Log2 Expression Level: 6.09
Gene #9 of Table 8
  Log2 Expression Level: 6.09
Gene #10 of Table 8
  Log2 Expression Level: 6.09
Gene #11 of Table 8
  Log2 Expression Level: 5.32
Gene #12 of Table 8
  Log2 Expression Level: 5.32
Gene #13 of Table 8
  Log2 Expression Level: 5.32
Gene #14 of Table 8
  Log2 Expression Level: 4.91
Gene #15 of Table 8
  Log2 Expression Level: 4.91
Gene #16 of Table 8
  Log2 Expression Level: 6.50
Gene #17 of Table 8
  Log2 Expression Level: 8.80
Gene #18 of Table 8
  Log2 Expression Level: 8.80
Gene #19 of Table 8
  Log2 Expression Level: 8.29
Gene #20 of Table 8
  Log2 Expression Level: 8.26
Gene #21 of Table 8
  Log2 Expression Level: 7.91
Gene #22 of Table 8
  Log2 Expression Level: 5.99
Gene #23 of Table 8
  Log2 Expression Level: 5.65
Gene #24 of Table 8
  Log2 Expression Level: 7.33
Gene #25 of Table 8
  Log2 Expression Level: 7.33
Gene #26 of Table 8
  Log2 Expression Level: 7.55
Gene #27 of Table 8
  Log2 Expression Level: 7.55
Gene #28 of Table 8
  Log2 Expression Level: 7.55
Gene #29 of Table 8
  Log2 Expression Level: 5.77
Gene #30 of Table 8
  Log2 Expression Level: 8.30
Gene #31 of Table 8
  Log2 Expression Level: 8.30
Gene #32 of Table 8
  Log2 Expression Level: 8.30
Gene #33 of Table 8
  Log2 Expression Level: 5.48
Gene #34 of Table 8
  Log2 Expression Level: 6.50
Gene #35 of Table 8
  Log2 Expression Level: 6.50
Gene #36 of Table 8
  Log2 Expression Level: 8.83
Gene #37 of Table 8
  Log2 Expression Level: 8.83
Gene #38 of Table 8
  Log2 Expression Level: 8.83
Gene #39 of Table 8
  Log2 Expression Level: 7.03
Gene #40 of Table 8
  Log2 Expression Level: 7.09
Gene #41 of Table 8
  Log2 Expression Level: 7.32
Gene #42 of Table 8
  Log2 Expression Level: 6.91
Gene #43 of Table 8
  Log2 Expression Level: 6.91
Gene #44 of Table 8
  Log2 Expression Level: 7.32
Gene #45 of Table 8
  Log2 Expression Level: 6.91
Gene #46 of Table 8
  Log2 Expression Level: 7.32
Gene #47 of Table 8
  Log2 Expression Level: 8.08
Gene #48 of Table 8
  Log2 Expression Level: 8.08
Gene #49 of Table 8
  Log2 Expression Level: 8.08
Gene #50 of Table 8
  Log2 Expression Level: 9.13
Gene #51 of Table 8
  Log2 Expression Level: 7.49
Gene #52 of Table 8
  Log2 Expression Level: 9.61
Gene #53 of Table 8
  Log2 Expression Level: 8.18
Gene #54 of Table 8
  Log2 Expression Level: 9.63
Gene #55 of Table 8
  Log2 Expression Level: 6.47
Gene #56 of Table 8
  Log2 Expression Level: 9.09
Gene #57 of Table 8
  Log2 Expression Level: 8.30
Gene #58 of Table 8
  Log2 Expression Level: 8.81
Gene #59 of Table 8
  Log2 Expression Level: 8.07
Gene #60 of Table 8
  Log2 Expression Level: 6.96
Gene #61 of Table 8
  Log2 Expression Level: 11.13
Gene #62 of Table 8
  Log2 Expression Level: 7.95
Gene #63 of Table 8
  Log2 Expression Level: 10.28
Gene #64 of Table 8
  Log2 Expression Level: 10.44
Gene #65 of Table 8
  Log2 Expression Level: 6.81
Gene #66 of Table 8
  Log2 Expression Level: 8.09
Gene #67 of Table 8
  Log2 Expression Level: 4.20
Gene #68 of Table 8
  Log2 Expression Level: 7.36
Gene #69 of Table 8
  Log2 Expression Level: 5.28
Gene #70 of Table 8
  Log2 Expression Level: 3.86
Gene #71 of Table 8
  Log2 Expression Level: 7.42
Gene #72 of Table 8
  Log2 Expression Level: 7.77
Gene #73 of Table 8
  Log2 Expression Level: 5.38
Gene #74 of Table 8
  Log2 Expression Level: 7.07
Gene #75 of Table 8
  Log2 Expression Level: 8.29
Gene #76 of Table 8
  Log2 Expression Level: 4.15
Gene #77 of Table 8
  Log2 Expression Level: 8.59
Gene #78 of Table 8
  Log2 Expression Level: 9.90
Gene #79 of Table 8
  Log2 Expression Level: 7.10
Gene #80 of Table 8
  Log2 Expression Level: 12.64
Gene #81 of Table 8
  Log2 Expression Level: 5.57
Gene #82 of Table 8
  Log2 Expression Level: 4.77
Gene #83 of Table 8
  Log2 Expression Level: 6.70
Gene #84 of Table 8
  Log2 Expression Level: 6.49
Gene #85 of Table 8
  Log2 Expression Level: 4.59
Gene #86 of Table 8
  Log2 Expression Level: 6.27
Gene #87 of Table 8
  Log2 Expression Level: 8.57
Gene #88 of Table 8
  Log2 Expression Level: 5.28
Gene #89 of Table 8
  Log2 Expression Level: 5.43
Gene #90 of Table 8
  Log2 Expression Level: 9.55
Gene #91 of Table 8
  Log2 Expression Level: 6.99
Gene #92 of Table 8
  Log2 Expression Level: 6.96
Gene #93 of Table 8
  Log2 Expression Level: 8.40
Gene #94 of Table 8
  Log2 Expression Level: 7.22
Gene #95 of Table 8
  Log2 Expression Level: 5.77
Gene #96 of Table 8
  Log2 Expression Level: 7.21
Gene #97 of Table 8
  Log2 Expression Level: 5.27
Gene #98 of Table 8
  Log2 Expression Level: 4.12
Gene #99 of Table 8
  Log2 Expression Level: 8.88
Gene #100 of Table 8
  Log2 Expression Level: 6.73
